This is an account of results in patent publication US9421204B2, “Oligomer modified diaromatic substituted compounds” (priority 2010, dated 2016).

A word on the Log P: it is the decadic logarithm of the partition coefficient of the neutral form, usually between octanol and water. A lower Log P goes with lower lipophilicity.

Data set [1] can be described thus: Toxicity XTT in CEM-SS cells (cytoprotection assay). The class given is cell-based. The settings on record: human, CEM-SS cells, XTT; read-out: CEM-SS TC50. A digest of the protocol:
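CEM-SS cells in exponential growth (>95% viable) were plated with compound alone, as eleven half-log dilutions in triplicate, at 37 °C and 5% CO2. Viability was measured by XTT/PMS metabolism over 4 h, read at 450/650 nm. Toxicity was derived by four-parameter curve fitting.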
(In general: Formazan colour is commonly taken as a measure of viable cells.)

A further data set relates to NL4-3. Nature of the data set: Anti-HIV cytoprotection assay, wild type NL4-3. The class given is cell-based, HIV-1. The settings on record: for TI: HIV-1 strain NL4-3. The procedure: Cells were prepared as described above. Virus Preparation—The wild type NL4-3 and drug resistant A17 viruses were obtained from the NIH AIDS Research and Reference Reagent Program and stock virus pools were produced in CEM-SS cells. Amino acid substitutes of L100I, Y181C and P23L were introduced by site-directed mutagenesis into pN L4-3 and stock virus pools were produced in CEM-SS cells. A pretitered aliquot of virus was removed from the freezer (−80° C.) and allowed to thaw slowly to room temperature in a biological safety cabinet.
(§1) Plate Format—Each plate contains cell control wells (cells only), virus control wells (cells plus virus), drug toxicity wells (cells plus drug only), drug colorimetric control wells (drug only) as well as experimental wells (drug plus cells plus virus). Samples were tested in triplicate with eleven half-log dilutions per compound. Efficacy and Toxicity XTT—Following incubation at 37° C. in a 5% CO2 incubator, the test plates were stained with the tetrazolium dye XTT (2,3-bis(2-methoxy-4-nitro-5-sulfophenyl)-5-[(phenylamino)carbonyl]-2H-tetrazolium hydroxide). XTT-tetrazolium was metabolized by the mitochondrial enzymes of metabolically active cells to a soluble formazan product, allowing rapid quantitative analysis of the inhibition of HIV induced cell killing by anti-HIV test substances. XTT solution was prepared daily as a stock of 1 mg/mL in RPMI1640. Phenazine methosulfate (PMS) solution was prepared at 0.15 mg/mL in PBS and stored in the dark at −20° C. XTTIPMS stock was prepared immediately before use by adding 40 μL of PMS per ml of XTT solution. Fifty microliters of XTT/PMS was added to each well of the plate and the plate was re-incubated for 4 hours at 37° C. Plates were sealed with adhesive plate sealers and shaken gently or inverted several times to mix the soluble formazan product and the plate was read spectrophotometrically at 450/650 nm with a Molecular Devices Vmax plate reader.
(§2) Data Analysis—Raw data was collected from the Softmax Pro 4.6 software and imported into a Excel XLFit4 spreadsheet for analysis by four parameter curve fit calculations. Both antiviral activity and toxicity are calculated.

The next data set relates to HIV-1RF. In words: Anti-HIV-1 cytoprotection assay in CEM-SS cells. The class given is cell-based. The settings on record: for Therapeutic Index: CEM-SS/HIV-1RF; for EC50: CEM-SS cells, XTT, read-out: CEM-SS/HIV-1RF EC50. The procedure: Cell Preparation—CEM-SS cells were passaged in T-75 flasks prior to use in the antiviral assay. On the day preceding the assay, the cells were split 1:2 to assure they were in an exponential growth phase at the time of infection. Total cell and viability quantification was performed using a hemocytometer and Trypan Blue dye exclusion. […] The cells were resuspended at 5×10^4 cells per ml in tissue culture medium and added to the drug containing microtiter plates in a volume of 50 μL.
Virus Preparation—The virus used for the assay was the lymphocyte-tropic virus strain HIV-IRF. The virus was obtained from the NIH AIDS Research and Reference Reagent Program and stock virus pools were produced in CEM-SS cells. A pretitred aliquot of virus was removed from the freezer (−80° C.) and allowed to thaw slowly to room temperature in a biological safety cabinet.
Plate Format—Each plate contains cell control wells (cells only), virus control wells (cells plus virus), drug toxicity wells (cells plus drug only), drug colorimetric control wells (drug only) as well as experimental wells (drug plus cells plus virus). Samples were tested in triplicate with eleven half-log dilutions per compound.
as §1, with “Efficacy and” for “Plate Format—Each plate contains cell control wells (cells only), virus control wells (cells plus virus), drug toxicity wells (cells plus drug only), drug colorimetric control wells (drug only) as well as experimental wells (drug plus cells plus virus). Samples were tested in triplicate with eleven half-log dilutions per compound. Efficacy and”, “hydroxide). XTT-tetrazolium is metabolized by” for “hydroxide). XTT-tetrazolium was metabolized by”, “−20° C. XTT/PMS stock was” for “−20° C. XTTIPMS stock was”, “the soluble fosmazan product and” for “the soluble formazan product and”
Anti-HIV-1 Cytopathic Effects Inhibition Assay Evaluations: Eight compounds were evaluated against the RF strain of HIV-1 in CEM-SS cells using a 12 concentration dose response curve.
as §2

A short description of data set [2]: Log P determination (Sirius GLpKa). The class given is physicochemical. Conditions: Partition Log P, 25° C.; for logP: read-out: Log P. As for the experimental part:
The Sirius GLpKa instrument is used to determine the pKa and Log P. A blank standardization has to be completed first and passed in order to conduct the compound experiments. The solutions used by the instrument for the blank titration include water, a pH solution, and a surfactant (TRITON X-100). The TRITON X-100 was purchased commercially from Sirus. The 0.5% solution of TRITON X-100 was used in the experiment. In a 1 L volumetric flask 5 mls of TRITON X-100 is added and MILLI Q water to volume. The vessels used by the instrument were filled to ⅓ of their volume with each solution. Therefore the assay tray contains one vessel for water, pH solution, and surfactant for the blank run. The temperature of the water bath for the instrument is 25° C. The blank is calculated as an average of three “good” experiments. The “good” was denoted by a green check mark next to the assay number in the computer software. Once the blank was run successfully the instrument was ready to conduct the experiments. An additional method has to be set up for the Log P determinations for each compound. The conjugates are weighed into vessels in the same manner as for the previous experiment, i.e., 10% of the molecular weight. The vessels are placed in the assay tray of the instrument. The experimental parameters are entered into the computer. These included sample weight, molecular weight, assay type (Partition Log P), number of assays (three), and pKa value of the parent drug from the previous experiment. The run was started. There are three measurements for each run that are averaged to obtain the final results from the data points collected in the calculation software. All runs were denoted as “good” by the green check mark next to the assay number.

Setting [3] is: Human immunodeficiency virus 1, NL43, CEM-SS.
[4] abbreviates: Human immunodeficiency virus 1, CEM-SS.

Where two headings read alike, the source gives them in different places. A value given as a limit tells only on which side of the number the result lay.

`COCCNc1ccc2[nH]c(C(=O)N3CCN(c4ncccc4NC(C)C)CC3)cc2c1` [5-mPEG1-NH-Delavirdine, 5-mPEG-NH-Delavirdine]: the CC50 in data set [1] amounted to 50900 nM. The molecule further had a TI with NL4-3 greater than 50.0. Further, the EC50 amounted to 20 nM in the data set on NL4-3 (setting [3]) and 47 nM in the data set with HIV-1RF (setting [4]). In addition, the “Therapeutic Index” value with HIV-1RF is 1083.11.
Take `COCCOCCOCCOCCOCCOCCOCCOc1ccc2[nH]c(C(=O)N3CCN(c4ncccc4NC(C)C)CC3)cc2c1` [mPEG7-O-Delavirdine, 5-O-mPEG7-Delavirdine]: in data set [1], the CC50 amounted to 35500 nM. The logP in data set [2] worked out at 2.73. For the same molecule, the “Therapeutic Index” value with HIV-1RF is reported as 76.1. Moreover, the EC50 with HIV-1RF (setting [4]) worked out at 470 nM.
Regarding `COCCOCCOCCOCCOCCOc1ccc2[nH]c(C(=O)N3CCN(c4ncccc4NC(C)C)CC3)cc2c1` [mPEG5-O-Delavirdine, 5-O-mPEG5-Delavirdine], the CC50 in data set [1] was found to be 14400 nM. Further, the “Therapeutic Index” value in the data set on HIV-1RF came to 19.0. Moreover, in the data set with HIV-1RF (setting [4]), the EC50 was determined as 760 nM.
Consider `COCCOCCOCCOCCOc1ccc2[nH]c(C(=O)N3CCN(c4ncccc4NC(C)C)CC3)cc2c1` [mPEG4-O-Delavirdine, 5-O-mPEG4-Delavirdine], for which, in data set [1], the CC50 stood at 34000 nM. In the data set on NL4-3, this molecule had a TI greater than 5.8. Besides, the EC50 in the data set on NL4-3 (setting [3]) turned out to be 870 nM; in the data set on HIV-1RF (setting [4]) it was 160 nM. In addition, the logP in data set [2] is 2.22. Besides, in the data set on HIV-1RF, the “Therapeutic Index” value was 213.8.
Take `COCCOCCOCCOc1ccc2[nH]c(C(=O)N3CCN(c4ncccc4NC(C)C)CC3)cc2c1` [mPEG3-O-Delavirdine, 5-O-mPEG3-Delavirdine]: the CC50 in data set [1] worked out at 26900 nM. Also, the TI with NL4-3 was greater than 83.3. The results for the EC50 in the data set on NL4-3 (setting [3]) and with HIV-1RF (setting [4]) were 60 nM and 54 nM, respectively. Also, the logP in data set [2] was found to be 1.98. Moreover, in the data set with HIV-1RF, the “Therapeutic Index” value came to 499.0.
Take `COCCOCCOCCOCCOCCOCCOc1ccc2[nH]c(C(=O)N3CCN(c4ncccc4NC(C)C)CC3)cc2c1` [mPEG6-O-Delavirdine, 5-O-mPEG6-Delavirdine]: the CC50 in data set [1] was found to be 22500 nM. In addition, the logP in data set [2] is 2.65. For the same molecule, the “Therapeutic Index” value in the data set with HIV-1RF amounted to 26.7. The EC50 in the data set on HIV-1RF (setting [4]) worked out at 840 nM.
The corresponding values for `COCCOCCOCCOCCOCCOCCOCCOCCOc1ccc2[nH]c(C(=O)N3CCN(c4ncccc4NC(C)C)CC3)cc2c1` [mPEG8-O-Delavirdine, 5-O-mPEG8-Delavirdine] are 52500 nM, 2.58, 144.2 and 360 nM.
For `COCCOCCNc1ccc2[nH]c(C(=O)N3CCN(c4ncccc4NC(C)C)CC3)cc2c1` [5-mPEG2-NH-Delavirdine], the CC50 in data set [1] is 55500 nM. Besides, the TI with NL4-3 was greater than 12.5. Also, the values for the EC50 with NL4-3 (setting [3]) and in the data set with HIV-1RF (setting [4]) were 80 nM and 17 nM, respectively. Moreover, in the data set on HIV-1RF, the “Therapeutic Index” value stood at 3266.29.
As to “5-O-mPEG9-Delavirdine [mPEG9-O-Delavirdine]”, the TI in the data set on NL4-3 is given as greater than 5.6. For the same molecule, the EC50 with NL4-3 (HIV-1 strain NL4-3, CEM-SS cells, read-out: EC50) turned out to be 890 nM. In addition, the “Log P” value in data set [2] worked out at 2.328. Moreover, in the data set on HIV-1RF, the EC50 was found to be 130 nM and the “Therapeutic Index” value was found to be 323.1.
